Data from the CheMixHub viscosity set.

Assay: xn = mol fraction of the nth substance listed

C1COCO1 + CC(=O)O
298.15 K, 101 kPa
Details | viscosity [mPa·s]
x1 = 0.0826 | 1.097
x1 = 0.1685 | 1.076
x1 = 0.2578 | 1.042
x1 = 0.3508 | 0.996
x1 = 0.4477 | 0.9442
x1 = 0.5487 | 0.883
x1 = 0.6541 | 0.8162
x1 = 0.7643 | 0.7415
x1 = 0.8795 | 0.6626

CCC(O)CC + COc1ccccc1
viscosity [mPa·s], 101.33 kPa
Details | x2 = 0.1007 | x2 = 0.2006 | x2 = 0.3001 | x2 = 0.3996 | x2 = 0.5 | x2 = 0.5999 | x2 = 0.6973 | x2 = 0.7998 | x2 = 0.8971
303.15 K | 2.787 | 2.043 | 1.547 | 1.238 | 1.062 | 0.976 | 0.941 | 0.927 | 0.917
313.15 K | 1.745 | 1.355 | 1.093 | 0.938 | 0.863 | 0.835 | 0.824 | 0.811 | 0.793
323.15 K | 1.261 | 1.041 | 0.888 | 0.795 | 0.747 | 0.729 | 0.719 | 0.709 | 0.697

ClC(Cl)C(Cl)(Cl)Cl + c1ccc(Oc2ccccc2)cc1
298.15 K, 101 kPa
Details | viscosity [mPa·s]
x2 = 0.2642 | 2.64
x2 = 0.5109 | 2.97
x2 = 0.7611 | 3.36

CCCCCCCC/C=C\CCCCCCCC(=O)OCC(COC(=O)CCCCCCC/C=C\CCCCCCCC)OC(=O)CCCCCCC/C=C\CCCCCCCC + Cc1ccccc1
viscosity [mPa·s], 101.33 kPa
Details | x1 = 0.000651 | x1 = 0.001141 | x1 = 0.003237 | x1 = 0.006694 | x1 = 0.009965 | x1 = 0.015 | x1 = 0.01736 | x1 = 0.02174 | x1 = 0.03032 | x1 = 0.04061
293.15 K | 0.6007 | 0.6111 | 0.6517 | 0.7201 | 0.7951 | 0.9362 | 0.971 | 1.073 | 1.306 | 1.616
298.15 K | 0.5652 | 0.5749 | 0.6124 | 0.6756 | 0.7447 | 0.8679 | 0.9064 | 0.9993 | 1.212 | 1.493
303.15 K | 0.5329 | 0.5419 | 0.5768 | 0.6355 | 0.6992 | 0.8126 | 0.8482 | 0.9337 | 1.129 | 1.385
308.15 K | 0.5016 | 0.5101 | 0.5425 | 0.5965 | 0.6557 | 0.7602 | 0.793 | 0.871 | 1.051 | 1.284
313.15 K | 0.4748 | 0.4827 | 0.513 | 0.5635 | 0.6185 | 0.7155 | 0.7459 | 0.8182 | 0.9851 | 1.198

CCCCCCCCC + CCCCCCCCCC
298.15 K, 101.33 kPa
Details | viscosity [mPa·s]
x1 = 0.1051 | 0.8387
x1 = 0.2082 | 0.8061
x1 = 0.3045 | 0.7835
x1 = 0.4048 | 0.7761
x1 = 0.5057 | 0.7535
x1 = 0.6085 | 0.7344
x1 = 0.7065 | 0.7185
x1 = 0.806 | 0.6913
x1 = 0.897 | 0.6734

CC(=O)c1ccccc1 + CCCCOC(C)=O
viscosity [mPa·s], 101 kPa
Details | x2 = 0.0904 | x2 = 0.1786 | x2 = 0.2746 | x2 = 0.37 | x2 = 0.4671 | x2 = 0.5675 | x2 = 0.672 | x2 = 0.7729 | x2 = 0.8848
298.15 K | 1.557 | 1.452 | 1.341 | 1.232 | 1.129 | 1.028 | 0.933 | 0.848 | 0.763
303.15 K | 1.405 | 1.312 | 1.212 | 1.115 | 1.024 | 0.934 | 0.849 | 0.772 | 0.696
308.15 K | 1.29 | 1.207 | 1.119 | 1.034 | 0.95 | 0.87 | 0.792 | 0.724 | 0.655
313.15 K | 1.188 | 1.112 | 1.032 | 0.954 | 0.877 | 0.804 | 0.734 | 0.671 | 0.608

CC(C)OC(C)C + CCC(C)O
viscosity [mPa·s], 100 kPa
Details | x1 = 0.0813 | x1 = 0.1604 | x1 = 0.2406 | x1 = 0.341 | x1 = 0.447 | x1 = 0.5582 | x1 = 0.6505 | x1 = 0.7374 | x1 = 0.8465 | x1 = 0.9346
293.15 K | 3 | 2.51 | 2.1 | 1.653 | 1.304 | 0.976 | 0.772 | 0.623 | 0.473 | 0.384
298.15 K | 2.51 | 2.09 | 1.75 | 1.395 | 1.122 | 0.846 | 0.678 | 0.56 | 0.44 | 0.365
303.15 K | 2.11 | 1.742 | 1.453 | 1.16 | 0.95 | 0.75 | 0.619 | 0.522 | 0.414 | 0.344
308.15 K | 1.76 | 1.48 | 1.241 | 1.004 | 0.834 | 0.67 | 0.558 | 0.473 | 0.388 | 0.325
313.15 K | 1.49 | 1.25 | 1.06 | 0.87 | 0.73 | 0.596 | 0.51 | 0.44 | 0.361 | 0.307
318.15 K | 1.28 | 1.074 | 0.92 | 0.769 | 0.65 | 0.535 | 0.46 | 0.4 | 0.333 | 0.29
323.15 K | 1.1 | 0.931 | 0.801 | 0.67 | 0.575 | 0.48 | 0.416 | 0.367 | 0.31 | 0.27
